Results: patent US12240890B2, “Compositions and methods for treating and/or preventing pathogenic fungal infection and for maintenance of microbiome commensalism” (priority 2017, dated 2025)

Columns and labels:
C. tropicalis = assay: respiration of C. tropicalis; type: cell-based, Candida tropicalis
[1] = system: Candida albicans virulence genes; assay: virulence gene expression by qRT-PCR; type: cell-based; conditions: hyphal form, RPMI at 37° C., compared with scrambled peptide controls
Procedure: (§1) Candida albicans (sc3514 cited in: Romanowski et al. PLOS One 7: e30119, 2012.: incorporated by reference in its entirety) and Candida tropicalis (ATCC #13803) were maintained in frozen glycerol stocks at −80° C. and streaked out on yeast-peptone-dextrose (YPD) agar plates for 48 hours at 30° C. prior to use. Single colonies were selected and cultured in YPD media at 30° C. Biofilm assays were performed using crystal violet straining (Taff et al. Med Mycol 50:214-218, 2012.: incorporated by reference in its entirety) in the presence of 10-20 uM of respective peptides. To induce hyphal growth, strains were placed in YPD+5% FBS or RPMI media at 37° C. for 4 hours. To image hyphal membrane disruption, the DNA binding fluorescent dye, propidium iodide (PI), was added to wells strains in the presence of peptides and imaged under bright field and far red fluorescent conditions. […] To investigate Candida albican virulence gene expression, 10 μL of a 1.0 OD600 culture were placed in 1 mL RPMI at 37° C. with shaking for 8 hours. Cultures were centrifuged at 3000×g for 5 minutes and RNA isolation was performed as described below.

Candida albicans = Candida albicans culture growth; type: cell-based; conditions: hyphal inducing conditions (broth culture containing serum)
C. albicans = assay: respiration of C. albicans; type: cell-based, Candida albicans
[2] = system: C. albicans strain SC5314; assay: crystal violet based biofilm assay (24 hours, OD600); type: cell-based, Candida albicans; conditions: crystal violet staining, 10-20 uM of respective peptides
Procedure: FIG. 13. […] Biofilm formation was measured in an assay that quantitates biofilms by staining with a crystal violet dye. The amount of dye absorbed by the biofilm positively correlates with amount of biofilm present. Amount of dye is measured via an optical density reading at a wavelength of 600 nm (OD600). Biofilm formation is measured over 24 hours in the presence or absence of peptides at 10, 30, or 40 uM concentrations.
as §1
Antifungal activity of peptides described in this application was tested by performing a crystal violet based biofilm assay. In this assay, Candida albicans is induced to form a biofilm in a 96-well plate for 24 hours in the presence or absence of peptide. Biofilm formation is quantitated through crystal violet staining and solubilization followed by optical density reading. […] Data are OD600 values normalized to appropriate within experiment vehicle control. Statistical analysis was performed via 2-Way ANOVA with multiple comparisons post-test. Significance is denoted by: *=p<0.05; **=p<0.01; ***-p<0.001; ****=p<0.0001. ns=not significant.

Which results are given for Magainin-2?
respiration (C. tropicalis; hyphal form): suppressed respiration; respiration (C. tropicalis; yeast form): suppressed activity; virulence gene expression [1]: induced expression of several virulence genes; C. albicans culture growth (Candida albicans): inhibited culture growth; respiration (C. albicans; hyphal form): suppressed respiration; respiration (C. albicans; yeast form): suppressed activity; inhibition of biofilm formation [2]: inhibit biofilm formation
